Measured values from ChEMBL document CHEMBL5365497, “Developing Novel Coumarin-Containing Azoles Antifungal Agents by the Scaffold Merging Strategy for Treating Azole-Resistant Candidiasis” (J Med Chem, 2023).
Converted amounts (≈) assume the structure as drawn. The source made the active and inactive calls. No cut-off for these calls is given here.

How the values were obtained:
Candida albicans [1] = experiment: Antifungal activity against Candida albicans SC5314 assessed as fungal growth inhibition by CLSI based microdilution method; format: functional
Candida albicans [2] = experiment: Induction of ROS production in fluconazole-resistant Candida albicans 904 at 64 ug/ml incubated for 30 mins by fluorescence microscopy; format: functional, organism-based; conditions: dose 64.0 µg/ml
[3] = Cytotoxicity against mouse J774.A1 cells assessed as cell growth inhibition by MTT assay; format: toxicity, cell-based
Candida albicans [4] = experiment: Antifungal activity against fluconazole-resistant Candida albicans 904 assessed as fungal growth inhibition by CLSI based microdilution method; format: functional
Nakaseomyces glabratus = experiment: Antifungal activity against Candida glabrata assessed as fungal growth inhibition by CLSI based microdilution method; format: functional
Candida albicans [5] = experiment: Antifungal activity against fluconazole-resistant Candida albicans 632 assessed as fungal growth inhibition by CLSI based microdilution method; format: functional
Candida albicans [6] = experiment: Antifungal activity against Candida albicans CPCC400616 assessed as fungal growth inhibition by CLSI based microdilution method; format: functional
Candida parapsilosis = experiment: Antifungal activity against Candida parapsilosis assessed as fungal growth inhibition by CLSI based microdilution method; format: functional; conditions: Lodderomyces parapsilosis
Candida albicans [7] = experiment: Antifungal activity against Candida albicans CPCC400616 assessed as reduction in ALS3 expression at 2 ug/ml incubated for 12 hrs by RT-PCR analysis; format: functional, organism-based; conditions: dose 2.0 µg/ml
Candida albicans [8] = experiment: Antifungal activity against fluconazole-resistant Candida albicans 904 assessed as decrease in CDR1 expression at 16 ug/ml measured after 16 hrs by RT-PCR analysis; format: functional, organism-based; conditions: dose 16.0 µg/ml
Cryptococcus neoformans = experiment: Antifungal activity against Cryptococcus neoformans assessed as fungal growth inhibition by CLSI based microdilution method; format: functional
Candida albicans [9] = experiment: Antifungal activity against fluconazole-resistant Candida albicans 904 assessed as reduction in EFG1 expression at 16 ug/ml incubated for 12 hrs by RT-PCR analysis; format: functional, organism-based; conditions: dose 16.0 µg/ml
Candida albicans [10] = experiment: Antifungal activity against Candida albicans CPCC400616 assessed as reduction in TEC1 expression at 2 ug/ml incubated for 12 hrs by RT-PCR analysis; format: functional, organism-based; conditions: dose 2.0 µg/ml
Candida albicans [11] = experiment: Antifungal activity against fluconazole-resistant Candida albicans 904 assessed as decrease in CDR2 expression at 16 ug/ml measured after 16 hrs by RT-PCR analysis; format: functional, organism-based; conditions: dose 16.0 µg/ml
Candida albicans [12] = experiment: Antifungal activity against fluconazole-resistant Candida albicans 904 assessed as reduction in CPH1 expression at 16 ug/ml incubated for 12 hrs by RT-PCR analysis; format: functional, organism-based; conditions: dose 16.0 µg/ml
Candida albicans [13] = experiment: Antifungal activity against fluconazole-resistant Candida albicans CaR assessed as fungal growth inhibition by CLSI based microdilution method; format: functional
[14] = molecular target: T1, Lanosterol 14-alpha demethylase (Candida albicans (strain SC5314 / ATCC MYA-2876) (Yeast), UniProt P10613); experiment: Inhibition of CYP51 in Candida albicans SC5314 assessed as ergosterol level at 0.03125 ug/ml incubated for 24 hrs by GC-MS analysis (reference value: 97.58 %); set-up: scale not given: the % may be the effect or the level left; conditions: at 0.03125 µg/mL
Candida albicans [15] = experiment: Antifungal activity against fluconazole-resistant Candida albicans 17# assessed as fungal growth inhibition by CLSI based microdilution method; format: functional
Candida albicans [16] = experiment: Antifungal activity against fluconazole-resistant Candida albicans 904 assessed as decrease in MDR1 expression at 16 ug/ml measured after 16 hrs by RT-PCR analysis; format: functional, organism-based; conditions: dose 16.0 µg/ml
Candida albicans [17] = experiment: Antifungal activity against Candida albicans CPCC400616 assessed as reduction in EFG1 expression at 2 ug/ml incubated for 12 hrs by RT-PCR analysis; format: functional, organism-based; conditions: dose 2.0 µg/ml
[18] = molecular target: T1, Lanosterol 14-alpha demethylase; experiment: Inhibition of CYP51 in Candida albicans SC5314 assessed as increase in obtusifoliol level at 0.03125 ug/ml incubated for 24 hrs by GC-MS analysis; conditions: at 0.03125 µg/mL
[19] = Stability in mouse plasma assessed as half life at 1 uM measured for 180 mins by LC-MS/MS analysis; format: ADME, cell-free
Candida albicans [20] = experiment: Antibiofilm activity against fluconazole-resistant Candida albicans 904 incubated for 24 hrs by XTT reduction assay; format: functional, organism-based; conditions: dose <= 128.0 µg/ml
Candida albicans [21] = experiment: Antifungal activity against fluconazole-resistant Candida albicans 901 assessed as fungal growth inhibition by CLSI based microdilution method; format: functional
Candida albicans [22] = experiment: Antifungal activity against fluconazole-resistant Candida albicans 904 assessed as reduction in TEC1 expression at 16 ug/ml incubated for 12 hrs by RT-PCR analysis; format: functional, organism-based; conditions: dose 16.0 µg/ml
Candida albicans [23] = experiment: Antifungal activity against fluconazole-resistant Candida albicans 904 assessed as inhibition of yeast to hypha morphological transition at 16 ug/ml incubated for 4 hrs by inverted microscopy; format: functional, organism-based; conditions: dose 16.0 µg/ml
[24] = molecular target: T1, Lanosterol 14-alpha demethylase; experiment: Inhibition of CYP51 in Candida albicans SC5314 assessed as increase in lanosterol level at 0.03125 ug/ml incubated for 24 hrs by GC-MS analysis; conditions: at 0.03125 µg/mL
Candida tropicalis = experiment: Antifungal activity against Candida tropicalis assessed as fungal growth inhibition by CLSI based microdilution method; format: functional
Candida albicans [25] = experiment: Antifungal activity against Candida albicans CPCC400616 assessed as reduction in CPH1 expression at 2 ug/ml incubated for 12 hrs by RT-PCR analysis; format: functional, organism-based; conditions: dose 2.0 µg/ml
Candida albicans [26] = experiment: Antifungal activity against fluconazole-resistant Candida albicans 904 assessed as decrease in ERG11 expression at 16 ug/ml measured after 16 hrs by RT-PCR analysis; format: functional, organism-based; conditions: dose 16.0 µg/ml
[27] = molecular target: T1, Lanosterol 14-alpha demethylase; experiment: Inhibition of CYP51 in Candida albicans SC5314 assessed as increase in eburicol level at 0.03125 ug/ml incubated for 24 hrs by GC-MS analysis; conditions: at 0.03125 µg/mL
[28] = Metabolic stability in mouse liver microsomes assessed as half life incubated for 5 to 60 mins by LC-MS/MS analysis; format: ADME, Microsome; conditions: time 5-60 min
Candida albicans [29] = experiment: Antifungal activity against Candida albicans CPCC400616 assessed as inhibition of yeast to hypha morphological transition at 2 ug/ml incubated for 4 hrs by inverted microscopy; format: functional, organism-based; conditions: dose 2.0 µg/ml
[30] = Stability in mouse plasma assessed as compound remaining at 1 uM measured for 180 mins by LC-MS/MS analysis; format: ADME, cell-free; conditions: read-out: Stability
Candida albicans [31] = experiment: Antifungal activity against fluconazole-resistant Candida albicans 904 assessed as reduction in ALS3 expression at 16 ug/ml incubated for 12 hrs by RT-PCR analysis; format: functional, organism-based; conditions: dose 16.0 µg/ml
Pichia kudriavzevii = experiment: Antifungal activity against Pichia kudriavzevii assessed as fungal growth inhibition by CLSI based microdilution method; format: functional
Candida albicans [32] = experiment: Antibiofilm activity against Candida albicans CPCC400616 incubated for 24 hrs by XTT reduction assay; format: functional, organism-based; conditions: dose <= 128.0 µg/ml
Cytochrome P450 2C9 = Cytochrome P450 2C9 (Homo sapiens, UniProt P11712); experiment: Inhibition of CYP2C9 in human liver microsomes using diclofenac as substrate preincubated for 5 mins followed by NADPH addition by LC-MS/MS analysis; format: ADME, Microsome
Cytochrome P450 2D6 = Cytochrome P450 2D6 (Homo sapiens, UniProt P10635); experiment: Inhibition of CYP2D6 in human liver microsomes using dextromethorphan as substrate preincubated for 5 mins followed by NADPH addition by LC-MS/MS analysis; format: ADME, Microsome
Cytochrome P450 1A2 = molecular target: T2, Cytochrome P450 1A2 (Homo sapiens, UniProt P05177); experiment: Inhibition of CYP1A2 in human liver microsomes using phenacetin as substrate preincubated for 5 mins followed by NADPH addition by LC-MS/MS analysis; format: ADME, Microsome
T2 sequence (P05177 whole entry): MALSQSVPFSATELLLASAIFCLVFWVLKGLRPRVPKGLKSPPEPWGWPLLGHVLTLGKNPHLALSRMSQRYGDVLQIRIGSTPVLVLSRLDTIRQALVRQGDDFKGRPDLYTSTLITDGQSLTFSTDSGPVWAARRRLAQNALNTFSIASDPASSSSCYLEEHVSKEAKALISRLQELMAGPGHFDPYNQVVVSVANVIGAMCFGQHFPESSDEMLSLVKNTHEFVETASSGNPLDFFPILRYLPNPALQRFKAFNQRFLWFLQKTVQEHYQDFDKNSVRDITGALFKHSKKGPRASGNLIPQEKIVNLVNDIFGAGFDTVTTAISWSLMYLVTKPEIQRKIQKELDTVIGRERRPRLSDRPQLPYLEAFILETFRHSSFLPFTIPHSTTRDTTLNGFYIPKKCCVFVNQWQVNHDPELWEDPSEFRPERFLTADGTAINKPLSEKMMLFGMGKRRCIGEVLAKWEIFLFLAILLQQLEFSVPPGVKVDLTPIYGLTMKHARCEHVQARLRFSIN

T1 sequence (P10613 whole entry): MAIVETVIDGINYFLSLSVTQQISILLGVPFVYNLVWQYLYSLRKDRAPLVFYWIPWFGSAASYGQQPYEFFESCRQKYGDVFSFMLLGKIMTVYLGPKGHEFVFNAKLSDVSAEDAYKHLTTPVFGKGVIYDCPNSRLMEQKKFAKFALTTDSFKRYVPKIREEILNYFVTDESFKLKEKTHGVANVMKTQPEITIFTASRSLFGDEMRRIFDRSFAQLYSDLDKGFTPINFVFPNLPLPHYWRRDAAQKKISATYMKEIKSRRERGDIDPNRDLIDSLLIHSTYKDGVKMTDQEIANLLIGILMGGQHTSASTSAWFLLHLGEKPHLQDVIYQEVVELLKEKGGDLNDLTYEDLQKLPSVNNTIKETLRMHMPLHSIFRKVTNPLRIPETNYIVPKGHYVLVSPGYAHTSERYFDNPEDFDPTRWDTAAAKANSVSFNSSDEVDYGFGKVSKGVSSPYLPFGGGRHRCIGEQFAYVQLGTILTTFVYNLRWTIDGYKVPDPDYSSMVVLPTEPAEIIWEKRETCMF
Chain of Cytochrome P450 2D6 (P10635 whole entry): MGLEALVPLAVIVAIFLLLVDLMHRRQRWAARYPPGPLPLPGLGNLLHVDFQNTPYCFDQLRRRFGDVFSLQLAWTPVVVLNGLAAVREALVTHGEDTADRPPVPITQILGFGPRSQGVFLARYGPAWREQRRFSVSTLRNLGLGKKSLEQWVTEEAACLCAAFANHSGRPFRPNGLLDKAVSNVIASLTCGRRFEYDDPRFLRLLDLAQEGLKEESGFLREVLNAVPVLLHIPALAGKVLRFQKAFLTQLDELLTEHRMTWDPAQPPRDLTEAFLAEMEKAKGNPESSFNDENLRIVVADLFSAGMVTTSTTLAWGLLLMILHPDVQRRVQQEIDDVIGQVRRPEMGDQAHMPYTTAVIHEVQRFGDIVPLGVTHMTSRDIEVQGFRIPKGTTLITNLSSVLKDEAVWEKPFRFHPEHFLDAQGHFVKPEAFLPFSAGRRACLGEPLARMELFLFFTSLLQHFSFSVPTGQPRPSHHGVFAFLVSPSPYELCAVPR
Chain of Cytochrome P450 2C9 (P11712 whole entry): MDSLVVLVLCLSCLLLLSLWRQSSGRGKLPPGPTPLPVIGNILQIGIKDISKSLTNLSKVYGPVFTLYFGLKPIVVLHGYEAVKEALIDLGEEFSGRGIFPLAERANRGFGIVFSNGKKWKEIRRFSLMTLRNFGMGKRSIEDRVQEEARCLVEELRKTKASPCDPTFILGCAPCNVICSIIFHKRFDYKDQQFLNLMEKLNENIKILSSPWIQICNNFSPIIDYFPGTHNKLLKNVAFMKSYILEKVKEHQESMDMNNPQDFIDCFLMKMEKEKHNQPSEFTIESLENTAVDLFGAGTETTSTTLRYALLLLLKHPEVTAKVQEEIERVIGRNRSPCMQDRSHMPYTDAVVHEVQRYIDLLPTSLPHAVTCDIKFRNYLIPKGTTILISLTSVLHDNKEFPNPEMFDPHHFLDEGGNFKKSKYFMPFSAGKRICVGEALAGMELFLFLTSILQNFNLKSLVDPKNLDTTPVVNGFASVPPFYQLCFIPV

With `O=c1oc2ccccc2cc1COC(Cn1ccnc1)c1ccc(Cl)cc1Cl` (stereo not given) the MIC (Candida albicans [1]) was 0.03 µg/mL (≈ 0.0722 µM), the Activity (Candida albicans [2]) was “Active” and the IC50 [3] was 24400 nM. The MIC (Candida albicans [4]) was 2 µg/mL (≈ 4.82 µM), the MIC (Nakaseomyces glabratus) was 1 µg/mL (≈ 2.41 µM) and the MIC (Candida albicans [5]) was 8 µg/mL (≈ 19.3 µM). The MIC (Candida albicans [6]) was 0.06 µg/mL (≈ 0.144 µM), the MIC (Candida parapsilosis) was < 0.25 µg/mL and the Activity (Candida albicans [7]) was “Active”. The Activity (Candida albicans [8]) was “Active”, the MIC (Cryptococcus neoformans) was 0.015 µg/mL (≈ 0.0361 µM) and the Activity (Candida albicans [9]) was “Active”. For the same compound, the Activity (Candida albicans [10]) was “Active”, the Activity (Candida albicans [11]) was “Active” and the Activity (Candida albicans [12]) was “Active”. The MIC (Candida albicans [13]) was 0.5 µg/mL (≈ 1.2 µM), the Activity [14] was 16.17% and the MIC (Candida albicans [15]) was 8 µg/mL (≈ 19.3 µM). For the same compound, the Activity (Candida albicans [16]) was “Active”, the Activity (Candida albicans [17]) was “Active” and the “inhibition (INH)” value [18] was “Active”. For the same compound, the half-life at 1 µM [19] was 34 min, the Activity (Candida albicans [20]) was “Dose-Dependent Effect” and the MIC (Candida albicans [21]) was 4 µg/mL (≈ 9.63 µM). The Activity (Candida albicans [22]) was “Active”, the inhibition (Candida albicans [23]) was “Active” and the “inhibition (INH)” value [24] was “Active”. The MIC (Candida tropicalis) was 0.5 µg/mL (≈ 1.2 µM), the Activity (Candida albicans [25]) was “Active” and the Activity (Candida albicans [26]) was “Active”. The “inhibition (INH)” value [27] was “Active”, the half-life [28] was 2.8 min and the inhibition (Candida albicans [29]) was “Active”. The remaining at 3 h, 1 µM [30] was 2.2%, the Activity (Candida albicans [31]) was “Active” and the MIC (Pichia kudriavzevii) was 0.25 µg/mL (≈ 0.602 µM). For the same compound, the Activity (Candida albicans [32]) was “Dose-Dependent Effect”.
For `Clc1ccc(COC(Cn2ccnc2)c2ccc(Cl)cc2Cl)c(Cl)c1` (stereo not given) [MICONAZOLE], the MIC (Candida albicans [1]) was 0.03 µg/mL (≈ 0.0721 µM), the IC50 (Cytochrome P450 2C9) was 115 nM and the IC50 [3] was 22200 nM. The MIC (Nakaseomyces glabratus) was 0.5 µg/mL (≈ 1.2 µM), the MIC (Candida albicans [6]) was 0.25 µg/mL (≈ 0.601 µM) and the MIC (Candida parapsilosis) was 0.25 µg/mL (≈ 0.601 µM). For the same compound, the MIC (Cryptococcus neoformans) was 0.25 µg/mL (≈ 0.601 µM), the half-life at 1 µM [19] was > 360 min and the MIC (Candida tropicalis) was 1 µg/mL (≈ 2.4 µM). It also gave a remaining at 3 h, 1 µM [30] of 94.9%, an MIC (Pichia kudriavzevii) of 0.5 µg/mL (≈ 1.2 µM) and an IC50 (Cytochrome P450 2D6) of 875 nM. For the same compound, the IC50 (Cytochrome P450 1A2) was 2620 nM.
